In PubChem BioAssay (NCI):
“And” between values parts separate entries of the source, which are not always exact repeats. Equal values may be shown once.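 Where inhibition never reached the appropriate level, the endpoint shown equals the highest concentration tested. Otherwise, values were interpolated linearly from a five-concentration, 48-hour dose response in 96-well plates. Abbreviation: GI50, concentration required for 50% inhibition of growth. The concentration for full growth arrest is given as TGI.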 The source made the active and inactive calls. Cut-off read from the data, not from the text of the source: active = GI50 below about 0.43 µM; inactive = the rest.

Tests used:
Test in all cases: NCI anticancer screen, dose series, 48 h
UACC-257 melanoma = tested on: UACC-257 melanoma
UO-31 renal = tested on: UO-31 renal
NCI-H522 lung = tested on: NCI-H522 lung
786-0 renal = tested on: 786-0 renal
MCF7 breast = tested on: MCF7 breast
U251 CNS = tested on: U251 CNS
UACC-62 melanoma = tested on: UACC-62 melanoma
A498 renal = tested on: A498 renal
LOX IMVI melanoma = tested on: LOX IMVI melanoma

Compound	TGI (UACC-257 melanoma)	TGI (UO-31 renal)	TGI (NCI-H522 lung)	TGI (786-0 renal)	TGI (MCF7 breast)	TGI (U251 CNS)	TGI (UACC-62 melanoma)	TGI (A498 renal)	TGI (LOX IMVI melanoma)	GI50 (UACC-257 melanoma)	GI50 (UO-31 renal)	GI50 (NCI-H522 lung)	GI50 (786-0 renal)	GI50 (MCF7 breast)	GI50 (U251 CNS)	GI50 (UACC-62 melanoma)	GI50 (A498 renal)	GI50 (LOX IMVI melanoma)	outcome (MCF7 breast)
O=C[C@@H](CO)O[C@H](C=O)c1c[nH]c(=O)[nH]c1=O	657 µM	287 µM	282 µM	1310 µM	428 µM	930 µM	219 µM	744 µM	886 µM										
CCOC(=O)c1c2c(c(O)c3ccccc3c(O)n(Cc3ccc(OC)cc3)c1C)C(=O)C=CC2=O	> 100 µM	> 100 µM	> 100 µM	> 100 µM	> 100 µM	> 100 µM	> 100 µM	> 100 µM	> 100 µM	> 100 µM	> 100 µM	> 100 µM	> 100 µM	> 100 µM	> 100 µM	> 100 µM	> 100 µM	> 100 µM	
COc1cc(C(=O)/C=C/c2c(C)n([O-])c3ccc(C)cc3[n+]2=O)cc(OC)c1OC	10.2 µM	10.1 µM	2.29 µM	21.7 µM	12.5 µM	21 µM	32.4 µM	38.6 µM	5.91 µM	2.54 µM	4.63 µM	0.741 µM	7.62 µM	3.3 µM	7.74 µM	8.46 µM	14.5 µM	2.11 µM	
COc1cc(NS(C)(=O)=O)ccc1Nc1c2ccc([N+](=O)[O-])cc2nc2c(C)cccc12	14.7 µM	11.4 µM	2.9 µM	6.04 µM	12.2 µM	11.2 µM	11.1 µM	2.92 µM	2.38 µM	1.29 µM	1.22 µM	1.07 µM	0.362 µM	0.0133 µM	0.214 µM	0.377 µM	0.226 µM	0.15 µM	
COC(=O)CCC(=O)C(=O)OC		85700 µM	30500 µM				51100 µM	39700 µM		30800 µM	15000 µM	13400 µM	33000 µM		33400 µM	13600 µM	18500 µM	13300 µM	inactive
CC12CCC3C(CCC4Cc5[nH]c6ccccc6c5CC43C)C1CCC2O (stereo unspecified)	> 100 µM	> 100 µM	5.73 µM		> 100 µM	> 48 µM	2.35 µM	6.44 µM	7.13 µM	> 100 µM	4.37 µM	0.295 µM	0.835 µM	0.373 µM	0.646 µM	0.284 µM	0.696 µM	1.01 µM	
CCCCC[C@H](O)/C=C/[C@@H]1[C@@H](C/C=C\CCCC(=O)O)[C@@H](O)C[C@H]1O	> 100 µM	> 100 µM	> 100 µM	> 100 µM	> 100 µM	> 100 µM	> 100 µM	> 100 µM	> 100 µM	> 100 µM	> 100 µM	> 100 µM	> 100 µM	> 100 µM	> 100 µM	> 100 µM	> 100 µM	> 100 µM	
CCc1nc(N)nc(N)c1-c1ccc(NCCN)c([N+](=O)[O-])c1	72.9 µM	> 100 µM	> 51.1 µM	> 100 µM	> 78.3 µM	> 100 µM	> 100 µM	> 86.1 µM	> 100 µM										
O=C(Nc1ccc(Cl)c(Cl)c1)c1cccc(NC2=C(Cl)C(=O)N(Cc3ccccc3)C2=O)c1	> 100 µM	> 100 µM	45.5 µM	> 100 µM	96.1 µM	> 100 µM	> 100 µM	> 100 µM	> 100 µM	41.1 µM	34.6 µM	16.6 µM	48.4 µM	22.5 µM	35.3 µM	37.1 µM	23.8 µM	27 µM	
Cc1cc2nc(C(C)C(=O)c3ccc(Cl)cc3)c(=O)[nH]c2cc1C (stereo unspecified)	> 100 µM	> 100 µM	> 100 µM	92.3 µM	> 100 µM	> 100 µM	> 100 µM	> 100 µM	> 100 µM										
O=[N+]([O-])c1ccc(S(=O)(=O)Cc2ccccc2)c([N+](=O)[O-])c1	3.05 µM	2.95 µM	2.81 µM	2.98 µM	3.65 µM	4.91 µM	5.22 µM	31.1 µM	3.39 µM										
O=C(O)C/C(=C\c1ccco1)C(=O)O	> 100 µM	> 100 µM	> 100 µM	> 100 µM	> 100 µM	> 100 µM	> 100 µM	> 100 µM	> 100 µM										
COc1ccc2oc(=O)cc(C(c3ccc[nH]3)c3ccc[nH]3)c2c1	18 µM	11.9 µM	5.88 µM	11.5 µM	14.5 µM	12.9 µM	14 µM	0.437 µM	7.57 µM	0.468 µM	0.127 µM	0.348 µM	0.281 µM	0.108 µM	0.11 µM	0.152 µM	0.104 µM	0.104 µM	
COc1cc2c(cc1O)CC[C@@H]1[C@@H]2CC[C@]2(C)[C@@H](NCCN(C)C)CC[C@@H]12	0.254 µM	0.889 µM	0.5 µM	0.831 µM	0.514 µM	0.458 µM	0.274 µM	0.636 µM	0.405 µM	0.114 µM	0.43 µM	0.108 µM	0.383 µM	0.127 µM	0.135 µM	0.0994 µM	0.164 µM	0.11 µM	
O=C(NC1CCN(Cc2ccccc2)CC1)c1cc(-c2ccncc2)nc2ccc(Cl)cc12	36.3 µM	33.9 µM	60.6 µM	28.7 µM	30.6 µM	> 71.7 µM	> 85.3 µM	3.45 µM	29.6 µM	16.9 µM	3.12 µM	22.2 µM	6.84 µM	5.66 µM	17.1 µM	20.6 µM		12 µM	
CCNC(=O)[C@@H]1CCCN2C(=O)CC[C@H](NC(=O)[C@H](Cc3ccc(OP(=O)(O)O)cc3)NC(C)=O)C(=O)N12	> 25 µM	> 25 µM	> 25 µM	> 25 µM	> 25 µM	> 25 µM	> 25 µM	> 25 µM	> 25 µM	> 25 µM	> 25 µM	> 25 µM	> 25 µM	> 25 µM	> 25 µM	> 25 µM	> 25 µM	> 25 µM	
F	4940 µM	6220 µM	> 6870 µM	> 6870 µM	> 6870 µM	> 6870 µM	3100 µM	4390 µM	> 6870 µM	2160 µM	1790 µM	4970 µM	2550 µM	4020 µM	2870 µM	1550 µM	1620 µM	2290 µM	
C/C(=N\NC(=O)c1sc(=S)n(C)c1N)c1cc2ccccc2o1	33.4 µM	37.8 µM	39 µM	29.8 µM	30.4 µM	29 µM	61.8 µM	18.9 µM	20.1 µM	12.8 µM	18.3 µM	15.5 µM	14.9 µM	12.3 µM	13.6 µM	18.5 µM	4.58 µM	7.05 µM	
COc1ccc(-c2cc(-c3cc(Cl)ccc3Cl)nc3n[nH]c(N)c23)cc1	> 100 µM	> 100 µM	49.3 µM	54.1 µM	> 100 µM	> 100 µM	> 100 µM	57.5 µM	> 100 µM	70.4 µM	27.9 µM	17.3 µM	19.3 µM	3.45 µM	8.95 µM	41.9 µM	21 µM	20.1 µM	
Cn1cc(-c2ccc3c(Nc4cccc(NC(=O)Nc5cccc(F)c5)c4)ncnc3c2)cn1	22.5 µM	13.7 µM	15.9 µM	4.46 µM	5.07 µM	5.07 µM	15 µM	2.99 µM	3.64 µM	4.5 µM	2.09 µM	1.22 µM	1.87 µM	1.14 µM	1.79 µM	3.21 µM	0.0532 µM	1.55 µM	
O=C(O)CCNc1ccccc1C(=O)O	> 100 µM	> 100 µM	> 100 µM	> 100 µM	> 100 µM	> 100 µM	> 100 µM	> 100 µM	> 100 µM										
CC[C@]1(O)CC(OC2CC(N(C)C)C(O)C(C)O2)c2c(cc3c(c2O)C(=O)c2c(O)cccc2C3=O)[C@@H]1C(=O)OC (stereo partly specified)	1.88 µM	0.635 µM	1.65 µM	5.58 µM	6.17 µM	5.57 µM	0.904 µM	1.13 µM	0.635 µM										
COc1cc(C2c3[nH]c4ccccc4c3C[C@H]3COC(=O)N23)cc(OC)c1OC (stereo partly specified)	> 100 µM	50.1 µM	0.04 µM and < 0.01 µM	> 100 µM		> 100 µM	> 100 µM			< 0.01 µM	< 0.01 µM	< 0.01 µM	< 0.01 µM	< 0.01 µM	< 0.01 µM	< 0.01 µM	< 0.01 µM	< 0.01 µM	
